Common to all, as to test: NCI tumour cell line growth inhibition, 48 h
For test [1], the system named is UACC-62 melanoma.
Test [2] deals with OVCAR-4 ovarian.
Test [3] concerns 786-0 renal.
Test [4] relates to SK-MEL-28 melanoma.
The test system of test [5] is SNB-19 CNS.
In test [6] the test system is KM12 colon.
For test [7], the system named is MDA-MB-231 breast.
The test system of test [8] is T-47D breast.
Test [9] relates to TK-10 renal.
In test [10] the test system is RPMI-8226 leukemia.

Several values for one entry are separate records, joined by “and”; a condition that tells them apart may be missing. Identical values can stand only once.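 Assay format: 96-well plates, 48-hour exposure. GI50 is the concentration that inhibits growth by half. Definition used: TGI = concentration required for complete inhibition of growth.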

Take `CCCCCCCC(=O)SCC/C=C/[C@@H]1CC(=O)NCc2cccc(n2)C2=N[C@@](C)(CS2)C(=O)N[C@@H](C(C)C)C(=O)O1`: the GI50 in test [1] is 0.0175 µM; in test [2], 0.15 µM; in test [3], 0.0989 µM; in test [4], 0.0312 µM; in [5], 0.191 µM; in [6], 0.0719 µM. Moreover, the GI50 in [7] was 0.119 µM; in [8] it was 0.147 µM; in test [9], 0.0262 µM; in test [10] it was 0.193 µM. Also, the TGI in test [1] was 0.128 µM; in test [2], more than 33.3 µM; in test [3], more than 33.3 µM; in [4], 3.01 µM; in test [5], more than 33.3 µM; in test [6], 5.95 µM. In addition, the TGI in [7] is more than 19.8 µM; in [8] it was 1.6 µM; in [9], 0.361 µM; in test [10] it was more than 33.3 µM.
Turning to `CCC1CCC2C3CC=C4CC(OC(C)=O)C(N)CC4(C)C3CCC12C` (stereo not given), the TGI in test [1] worked out at 9.32 µM; in test [2] it was 18 µM; in [3], 3.79 µM; in test [4], 10.4 µM; in [5], 6.49 µM; in test [6], 8.64 µM. For the same compound, the TGI is 4.09 µM in test [7], 12.6 µM in test [8], 6.1 µM in [9] and 8.3 µM in [10].
For the compound `O=c1[nH]ccc2nc(N3CCC(O)CC3)nc(Nc3ccc(N4CCOCC4)cc3)c12`, the GI50 was 20.5 µM in [1]; more than 100 µM in test [2]; more than 22.6 µM in [3]; more than 100 µM in test [4]; more than 78.8 µM in test [5]; 0.055 µM in [6]. Besides, the GI50 is 7.41 µM in test [7], more than 100 µM in [8], more than 26.3 µM in [9] and more than 100 µM in [10]. Further, the TGI in [1], in [2], in [3], in test [4], in test [5] and in [6] was more than 100 µM each time. Besides, the TGI in test [7], in test [8], in test [9] and in test [10] was more than 100 µM in each case.
With `COc1cc(/C=C/C(=O)c2ccc(F)cc2)ccc1OCCCCOc1cc2c(cc1OC)C(=O)N1CCCC1C=N2` (stereo not given), the GI50 in test [1] was 0.777 µM; in test [2], 2.99 µM; in test [3], 0.989 µM; in test [4], 15.3 µM; in test [5], 1.04 µM; in test [6] it was 0.762 µM. Besides, the GI50 is 1.27 µM in [7], 1.42 µM in test [8], 1.7 µM in test [9] and 0.218 µM in test [10]. Also, the TGI in test [1] is 11.4 µM; in [2] it was more than 23.9 µM; in [3] it was 7.74 µM; in test [4], more than 100 µM; in test [5], more than 19.9 µM; in [6], 7.71 µM. The TGI is more than 21.2 µM in test [7], more than 33.2 µM in test [8], 23.2 µM in test [9] and 1.31 µM in test [10].
For the compound `CS(=O)(=O)OCCCCOS(C)(=O)=O`, the GI50 in test [1] was 472 µM; in test [2] it was more than 1000 µM; in test [3] it was 539 µM; in test [4] it was 980 µM; in test [5], more than 862 µM; in test [6], more than 872 µM. Further, the GI50 in test [7] was more than 250 µM; in [8] it was 336 µM; in [9] it was more than 464 µM; in test [10], 95.9 µM. Further, the TGI in test [1] was 250 µM and > 1000 µM; in test [2], 223 µM and > 1000 µM; in test [3] it was 250 µM and > 1000 µM; in test [4], 232 µM and > 1000 µM; in [5] it was 233 µM and > 1000 µM; in test [6], more than 1000 µM. The TGI in test [7] was more than 1000 µM; in test [8], more than 464 µM; in test [9] it was more than 464 µM; in [10], 250 µM and > 1000 µM.
With `S=P(C1CCCCC1)(C1CCCCC1)C(c1cccnc1)N1CCCC1` (stereo not given), the TGI was 52.5 µM in test [1]; 55.7 µM in test [2]; 31.5 µM in test [3]; more than 100 µM in [4]; more than 100 µM in test [5]; 33.4 µM in test [6]. Besides, the TGI is 39.1 µM in test [7], more than 100 µM in test [8], 34.3 µM in test [9] and 38.3 µM in test [10].
On to `O=C1c2cccc3c([N+](=O)[O-])ccc(c23)C(=O)N1CCCCl`, for which the GI50 was 4.48 µM in test [1]; 4.77 µM in test [2]; more than 10 µM in [3]; 3.84 µM in test [4]; more than 10 µM in [5]; 6.11 µM in test [6]. The GI50 in test [7] was more than 10 µM; in [8] it was 2.65 µM; in [9], more than 10 µM; in test [10], 4.61 µM. In addition, the TGI in test [1], in test [2], in test [3], in test [4], in test [5] and in test [6] was more than 10 µM throughout. The TGI in [7], in test [8], in [9] and in test [10] was more than 10 µM throughout.
Consider `O=c1ncc(I)c[nH]1`, for which the GI50 in [1], in test [2], in [3], in [4], in test [5] and in test [6] was more than 100 µM throughout. The GI50 in [7], in [8], in [9] and in test [10] was more than 100 µM in each case. Further, the TGI in test [1], in [2], in [3], in test [4], in test [5] and in test [6] was more than 100 µM in each case. In addition, the TGI in [7], in test [8], in [9] and in [10] was more than 100 µM in each case.
With `CCN(CC)c1ccc(CNc2cc(C)nc3ccc(OC)cc23)cc1`, the GI50 was 1.72 µM in test [1]; 5 µM in test [2]; 2.01 µM in test [3]; 1.86 µM in test [4]; 3.98 µM in test [5]; 3.1 µM in test [6]. For the same compound, the GI50 in test [7] was 2.46 µM; in test [8] it was 1.96 µM; in test [9], 1.92 µM; in test [10], 1.71 µM. Moreover, the TGI in test [1] stood at 3.67 µM; in [2], 16.5 µM; in [3], 4.29 µM; in [4] it was 3.38 µM; in [5], 16.3 µM; in test [6], 11.6 µM. Also, the TGI in test [7] came out at 6.81 µM; in test [8] it was 4.61 µM; in test [9] it was 4.64 µM; in [10] it was 4.2 µM.
With `Oc1ccccc1/C=N/Nc1nc2ccccc2s1`, the GI50 in [1] is 8.97 µM; in test [2] it was 2.31 µM; in [3], 7.96 µM; in test [4] it was 89 µM; in test [5], 18.7 µM; in [6], 3.1 µM. The GI50 in test [7] is 2.49 µM; in test [8] it was 2.11 µM; in test [9] it was 4.79 µM; in test [10], 4.7 µM. The TGI in test [1] was more than 100 µM; in [2], more than 100 µM; in test [3] it was 89 µM; in test [4], more than 100 µM; in test [5], more than 100 µM; in test [6], more than 100 µM. In addition, the TGI in test [7], in [8], in test [9] and in [10] was more than 100 µM throughout.
For `COc1ccc2c(c1)[n+]([O-])c(/C(C)=N/NC(N)=S)c(C)[n+]2[O-]`, the TGI in test [1], in [2], in test [3], in test [4], in test [5] and in [6] was more than 100 µM in each case. Further, the TGI in test [7], in [8], in test [9] and in test [10] was more than 100 µM in each case.
For the compound `O=C(/C=C/c1ccccc1)Nc1ncc(Cc2ccccc2)s1`, the GI50 in test [1] is 0.125 µM; in [2], 1.38 µM; in test [3], 0.598 µM; in [4] it was 1.7 µM; in [5] it was 0.392 µM; in [6], 0.149 µM. Moreover, the GI50 is 0.415 µM in test [7], 0.413 µM in test [8], 1.34 µM in test [9] and 0.309 µM in test [10]. Also, the TGI in [1] is 4.28 µM; in [2], 6.54 µM; in [3], 10.7 µM; in [4], more than 100 µM; in test [5] it was more than 52.3 µM; in test [6] it was 13 µM. Besides, the TGI in test [7] was 9.28 µM; in [8] it was more than 100 µM; in test [9], more than 46.4 µM; in test [10] it was more than 28 µM.
Take `C=C(C)[C@@H]1CC[C@]2(C(=O)N3CCN(C)CC3)CC[C@]3(C)[C@H](CC[C@@H]4[C@@]5(C)C/C(=C/c6ccncc6)[C@H](O)C(C)(C)[C@@H]5CC[C@]43C)[C@@H]12`: the GI50 in test [1] was 10.2 µM; in test [2], 7.08 µM; in test [3], 2.71 µM; in test [4] it was 7.46 µM; in test [5] it was 8.68 µM; in test [6] it was 3.86 µM. Also, the GI50 in test [7] is 4.46 µM; in test [8] it was 3.02 µM; in [9] it was 15.5 µM; in [10] it was 3.01 µM. The TGI in test [1] was 27.9 µM; in [2], more than 100 µM; in [3], 13.3 µM; in [4] it was 22.2 µM; in test [5], more than 100 µM; in test [6], 17.7 µM. The TGI in test [7] was 19.3 µM; in test [8], 22.4 µM; in [9], 89.4 µM; in test [10], 17 µM.
On to `COc1ccccc1CN=C1NC(=O)/C(=C/c2ccc3ncccc3c2)S1`, for which the GI50 in test [1] was 8.61 µM; in [2], 8.88 µM; in test [3], 10.9 µM; in test [4], more than 15.3 µM; in test [5] it was 4.01 µM; in test [6], 6.18 µM. Further, the GI50 in test [7] was 11.2 µM; in [8] it was 8.13 µM; in test [9], 7.97 µM; in [10] it was 7.17 µM. Besides, the TGI in test [1] was more than 25 µM; in test [2], more than 25 µM; in test [3] it was more than 25 µM; in test [4], more than 25 µM; in test [5], more than 25 µM; in test [6] it was more than 16.9 µM. The TGI in test [7] is more than 25 µM; in test [8] it was 24.3 µM; in test [9], more than 25 µM; in test [10] it was more than 25 µM.
Consider `COc1ccc(C2CC(c3ccc4ccccc4c3)=NN2/C=C2\SC(=S)N(NC(=O)Cc3ccccc3Nc3c(Cl)cccc3Cl)C2=O)cc1` (stereo not given), for which the GI50 in test [1] was 0.606 µM; in test [2], 1.2 µM; in [3], 0.508 µM; in [4] it was 4.45 µM; in test [5] it was 0.636 µM; in test [6], 0.37 µM. Moreover, the GI50 in test [7] was 1.6 µM; in test [8], 0.788 µM; in test [9], 3.57 µM; in test [10], 0.309 µM. Besides, the TGI in [1] was more than 43.8 µM; in test [2], more than 48 µM; in test [3], more than 38.1 µM; in test [4] it was more than 50 µM; in test [5] it was more than 46.8 µM; in [6], more than 33.5 µM. Further, the TGI in test [7] was more than 44.4 µM; in test [8] it was 98.8 µM; in test [9], 43.2 µM; in test [10], 1.78 µM.
In the case of `Cc1cc(C)nc(NS(=O)(=O)c2ccc(Nc3nc4nc(NCc5ccccc5)nc(-c5ccc(O)cc5)c4c(=O)[nH]3)cc2)n1`, the GI50 in test [1] was 25.2 µM; in [2], 32.1 µM; in test [3], 66.7 µM; in test [4] it was 13.4 µM; in [5] it was 27.4 µM; in test [6], 15.5 µM. Further, the GI50 in test [7] is 29.6 µM; in test [8] it was 18.4 µM; in test [9], 28 µM; in test [10] it was more than 100 µM. The TGI in test [1], in test [2], in [3], in test [4], in test [5] and in test [6] was more than 100 µM each time. For the same compound, the TGI in [7], in test [8], in test [9] and in test [10] was more than 100 µM each time.
